The results in this text go back to PubChem BioAssay (NCI).

Test systems include CAKI-1 renal; CCRF-CEM leukemia; MALME-3M melanoma; MCF7 breast; NCI-H23 lung; NCI-H522 lung; OVCAR-5 ovarian; RPMI-8226 leukemia; SK-MEL-28 melanoma; SR leukemia; TK-10 renal.
What all share (test): growth of human tumour cells (NCI), 48 h

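1) Cells in 96-well plates. 2) Compound, 48 h, 5 concentrations. 3) Linear interpolation between surrounding doses. 4) Unreached endpoint = highest concentration. Definition used: TGI = concentration required for complete inhibition of growth.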

As for `Nc1nc(Cl)cc(NCC2(CO)CCC(OCc3ccccc3)C2)n1` (stereo not given), the TGI was 45.1 µM in the experiment on CAKI-1 renal; more than 100 µM with CCRF-CEM leukemia; 97.2 µM in the experiment on MALME-3M melanoma; 89.1 µM with MCF7 breast; 43.8 µM in the experiment on NCI-H23 lung; 37.9 µM in the experiment on NCI-H522 lung. For the same compound, the TGI was more than 100 µM in the experiment with OVCAR-5 ovarian; more than 100 µM in the experiment with RPMI-8226 leukemia; more than 100 µM in the experiment with SK-MEL-28 melanoma; 80.2 µM in the experiment on SR leukemia; 60.5 µM with TK-10 renal.

As for `c1ccc(-c2cc(-c3cc(-c4ccccc4)no3)on2)cc1`, the TGI in the experiment with CAKI-1 renal was more than 100 µM; in the experiment on CCRF-CEM leukemia, 78.8 µM; in the experiment on MALME-3M melanoma, more than 100 µM; in the experiment with MCF7 breast it was more than 100 µM; with NCI-H23 lung, more than 100 µM; in the experiment on NCI-H522 lung, more than 100 µM. Also, the TGI with OVCAR-5 ovarian was more than 100 µM; with RPMI-8226 leukemia, more than 100 µM; in the experiment on SK-MEL-28 melanoma, more than 100 µM; in the experiment with SR leukemia it was 31.3 µM; with TK-10 renal, more than 100 µM.

Take `N#C/C(N)=C(\C#N)N=CNc1ccccc1N`: the TGI with CAKI-1 renal, in the experiment with CCRF-CEM leukemia, in the experiment on MALME-3M melanoma, in the experiment with MCF7 breast, in the experiment on NCI-H23 lung and in the experiment on NCI-H522 lung was more than 100 µM in each case. The TGI in the experiment with OVCAR-5 ovarian, in the experiment on RPMI-8226 leukemia, in the experiment with SK-MEL-28 melanoma, in the experiment with SR leukemia and with TK-10 renal was more than 100 µM each time.

As to `O=C1C(c2c(O)[nH]c3ccc(S(=O)(=O)N(CCO)CCO)cc23)=Nc2ccccc21`, the TGI in the experiment on CAKI-1 renal, with CCRF-CEM leukemia, with MALME-3M melanoma, with MCF7 breast, in the experiment with NCI-H23 lung and with NCI-H522 lung was more than 100 µM in each case. For the same compound, the TGI in the experiment on OVCAR-5 ovarian, in the experiment on RPMI-8226 leukemia, in the experiment with SK-MEL-28 melanoma, in the experiment with SR leukemia and in the experiment with TK-10 renal was more than 100 µM each time.

Take `CC1(c2nc3cc(Cl)c(Cl)cc3[nH]2)CCC(C(=O)O)C(C)(C)O1` (stereo not given): the TGI in the experiment on CAKI-1 renal, in the experiment with CCRF-CEM leukemia, in the experiment with MALME-3M melanoma, in the experiment on MCF7 breast, in the experiment with NCI-H23 lung and in the experiment with NCI-H522 lung was more than 100 µM in each case. The TGI in the experiment on OVCAR-5 ovarian, with RPMI-8226 leukemia, in the experiment on SK-MEL-28 melanoma, in the experiment with SR leukemia and in the experiment on TK-10 renal was more than 100 µM each time.

Consider `COc1ccc2nc(-c3ccc(O)cc3)cn2c1`, for which the TGI in the experiment on CAKI-1 renal, in the experiment with CCRF-CEM leukemia, in the experiment with MALME-3M melanoma, in the experiment with MCF7 breast, in the experiment with NCI-H23 lung and in the experiment with NCI-H522 lung was more than 100 µM throughout. The TGI in the experiment on OVCAR-5 ovarian, with RPMI-8226 leukemia, with SK-MEL-28 melanoma, in the experiment with SR leukemia and with TK-10 renal was more than 100 µM in each case.

On to `O=C1/C(=C/c2ccc(O)cc2)CCc2ccccc21`, for which the TGI amounted to 91.5 µM in the experiment with CAKI-1 renal; 10.9 µM in the experiment on CCRF-CEM leukemia; 42.9 µM with MALME-3M melanoma; 82.4 µM in the experiment with MCF7 breast; 55.2 µM in the experiment on NCI-H23 lung; 5.61 µM with NCI-H522 lung. The TGI in the experiment on OVCAR-5 ovarian is more than 91 µM; in the experiment with RPMI-8226 leukemia, 34.9 µM; in the experiment on SK-MEL-28 melanoma, 37 µM; in the experiment on SR leukemia, 16 µM; in the experiment on TK-10 renal it was more than 95.9 µM.

Take `Clc1ccc(-c2cc(-c3nc4ccccc4[nH]3)no2)cc1`: the TGI in the experiment with CAKI-1 renal stood at 34.7 µM; in the experiment on CCRF-CEM leukemia, 57.4 µM; with MALME-3M melanoma it was 37.5 µM; with MCF7 breast it was 31 µM; in the experiment with NCI-H23 lung, 42.3 µM; in the experiment on NCI-H522 lung, 42.8 µM. The TGI with OVCAR-5 ovarian stood at 40.8 µM; with RPMI-8226 leukemia it was 73.1 µM; in the experiment with SK-MEL-28 melanoma, 40.5 µM; in the experiment on SR leukemia, 59.7 µM; with TK-10 renal, 40 µM.

As for `O=c1[nH][nH]c(=S)c(=O)[nH]1`, the TGI with CAKI-1 renal, in the experiment on CCRF-CEM leukemia, with MALME-3M melanoma, in the experiment on MCF7 breast, with NCI-H23 lung and in the experiment with NCI-H522 lung was more than 100 µM in each case. For the same compound, the TGI in the experiment on OVCAR-5 ovarian, with RPMI-8226 leukemia, in the experiment on SK-MEL-28 melanoma, with SR leukemia and in the experiment on TK-10 renal was more than 100 µM throughout.

For `Cc1cccc(C(O)c2ccccn2)c1O` (stereo not given), the TGI in the experiment on CAKI-1 renal, in the experiment on CCRF-CEM leukemia, in the experiment with MALME-3M melanoma, in the experiment with MCF7 breast, with NCI-H23 lung and with NCI-H522 lung was more than 100 µM in each case. In addition, the TGI with OVCAR-5 ovarian, in the experiment with RPMI-8226 leukemia, in the experiment on SK-MEL-28 melanoma, with SR leukemia and in the experiment with TK-10 renal was more than 100 µM each time.
